Data on 17 molecules can be found in US10800772B2 (Gilead Sciences, Inc., priority 2016, dated 2020).

Holding throughout (assay type): cell-based, HIV-1
The subject of one test is HIV-IIIb IN T174I BT. The test can be described thus: Antiviral assay in MT4 cells, HIV-IIIb IN T174I BT virus (from viral breakthrough). The note with it: Human immunodeficiency virus 1, IIIB, MT4, 120 h, read-out: T174I BT EC50, MT4 cells, HIV-IIIb IN T174I BT (viral breakthrough), 5 days, CellTiter-Glo. On the procedure: (§1) Antiviral Assay in MT4 Cells
(§2) For the antiviral assay, 0.4 μL of 189X test concentration of 3-fold serially diluted compound in DMSO was added to 40 μL of cell growth medium (RPMI 1640, 10% FBS, 1% Penicillin-Streptomycin, 1% L-Glutamine, 1% HEPES) in each well of 384-well plate (10 concentrations) in quadruplicate.
(§3) 1 mL Aliquots of MT4 cells were pre-infected for 3 hours at 37° C. with 25 μL of cell growth medium (mock-infected) or a fresh 1:250 dilution of an HIV-IIIb (wildtype, IN T174I BT, or IN T174I DE) concentrated ABI stock (0.004 m.o.i.). IN T174I BT virus was derived from viral breakthrough (BT) assay as described in Mulato, A.; Hansen, D.; Thielen, A.; Porter, D.; Stepan, G.; White, K.; Daeumer, M.; Cihlar, T.; Yant, S. R. AIDS Research and Human Retrovirues, July 2016, ahead of print. doi:10.1089/aid.2016.0071. IN T174I DE virus was derived from serial passaging with dose escalation (DE) of test compound. Infected and uninfected cells were diluted in cell growth media and 35 μL (2000 cells) was added to each well of the assay plates.
(§4) Assay plates were then maintained in a humidified, 5% CO2 incubator at 37° C. After 5 days of incubation, 25 μl of 2× concentrated CellTiter-Glo™ Reagent (catalog # G7573, Promega Biosciences, Inc., Madison, Wis.) was added to each well of the assay plate. Cell lysis was carried out by incubating at room temperature for 10 minutes and then chemiluminescence was read using an Envision plate reader (PerkinElmer). EC50 values were calculated as the compound concentration that caused a 50% […] in luminescence signal, a measure of HIV-1 replication.
On the technique in general: Cellular ATP, detected with luciferase, serves as a proxy for viable cell number.

The test system of a further test is HIV-IIIb IN T174I DE. The test can be described thus: Antiviral assay in MT4 cells, HIV-IIIb IN T174I DE virus (from dose escalation passaging). The note with it: Human immunodeficiency virus 1, IIIB, MT4, 120 h, read-out: T174I DE EC50, MT4 cells, HIV-IIIb IN T174I DE (dose escalation), 5 days, CellTiter-Glo. As for the experimental part: as §1, §2, §3, §4
In the next test the test system is HIV-IIIb (wildtype). The experiment in a line: Antiviral assay in MT4 cells, HIV-IIIb wildtype. The note with it: read-out: WT EC50. On the procedure: as §1, §2, §3, §4
The mark [1] stands for this setting: Human immunodeficiency virus 1, IIIB, MT4, 120 h.
[2] abbreviates: Human immunodeficiency virus 1, 120 h, MT4 cells, HIV-IIIb wildtype, 5 days, CellTiter-Glo.

Like-named read-outs stand apart in the source and are kept apart here.

Consider `COCCN1CC[C@H](c2nn(C)c3ccc(-c4nc5cc(C)c([C@H](OC(C)(C)C)C(=O)O)c(-c6ccc(Cl)cc6)c5s4)cc23)C1` (single isomer, unassigned) [Compound 68], for which the half-maximal effective concentration (EC50) (as a rule, the concentration that produces a half-maximal response) with HIV-IIIb IN T174I BT is 1160 nM; in the test with HIV-IIIb IN T174I DE, 1600 nM; in the test on HIV-IIIb (wildtype) (setting [1]), 5 nM.

Regarding `Cc1cc2nc(-c3ccc4c(c3)c(N3CCC3=O)nn4C)sc2c(-c2ccc(Cl)cc2)c1[C@H](OC(C)(C)C)C(=O)O` [Compound 3, (S)-2-(tert-butoxy)-2-(7-(4-chlorophenyl)-5-methyl-2-(1-methyl-3-(2-oxoazetidin-1-yl)-1H-indazol-5-yl)benzo[d]thiazol-6-yl)acetic Acid], the EC50 with HIV-IIIb IN T174I BT worked out at 5710 nM; in the test on HIV-IIIb IN T174I DE it was 5710 nM; in the test with HIV-IIIb (wildtype) (setting [1]), 43 nM.

As for `Cc1cc2nc(-c3ccc4c(c3)c(N3CCN5CCOC[C@@H]5C3)nn4C)sc2c(-c2ccc(Cl)cc2)c1[C@H](OC(C)(C)C)C(=O)O` [Compound 4, (S)-2-(tert-butoxy)-2-(7-(4-chlorophenyl)-2-(3-((S)-hexahydropyrazino[2,1-c][1,4]oxazin-8(1H)-yl)-1-methyl-1H-indazol-5-yl)-5-methylbenzo[d]thiazol-6-yl)acetic Acid], the EC50 in the test on HIV-IIIb IN T174I BT was found to be 1270 nM; with HIV-IIIb IN T174I DE, 1740 nM; in the test with HIV-IIIb (wildtype) (setting [1]) it was 10 nM.

As for `COC(=O)N1CC[C@@H]1CN1CCC(c2nn(C)c3ccc(-c4nc5cc(C)c([C@H](OC(C)(C)C)C(=O)O)c(-c6ccc(Cl)cc6)c5s4)cc23)CC1` [Compound 5, (S)-2-(tert-butoxy)-2-(7-(4-chlorophenyl)-2-(3-(1-(((R)-1-(methoxycarbonyl)azetidin-2-yl)methyl)piperidin-4-yl)-1-methyl-1H-indazol-5-yl)-5-methylbenzo[d]thiazol-6-yl)acetic Acid], the concentration for a half-maximal effect (EC50) was 106 nM in the test on HIV-IIIb IN T174I BT, 169 nM with HIV-IIIb IN T174I DE and 3 nM in the test on HIV-IIIb (wildtype) (setting [1]).

Turning to `Cc1cc2nc(-c3ccc4c(c3)c(C3CCN(CC5CCO5)CC3)nn4C)sc2c(-c2ccc(Cl)cc2)c1[C@H](OC(C)(C)C)C(=O)O` (stereo partly drawn) [Compound 6, (2S)-2-(tert-butoxy)-2-(7-(4-chlorophenyl)-5-methyl-2-(1-methyl-3-(1-(oxetan-2-ylmethyl)piperidin-4-yl)-1H-indazol-5-yl)benzo[d]thiazol-6-yl)acetic Acid], the 50% effective concentration (EC50) in the test with HIV-IIIb IN T174I BT came out at 283 nM; in the test with HIV-IIIb IN T174I DE, 577 nM; in the test on HIV-IIIb (wildtype) (setting [1]) it was 4 nM.

As for `CCC(=O)N1CC(N2CCC(c3nn(C)c4ccc(-c5nc6cc(C)c([C@H](OC(C)(C)C)C(=O)O)c(-c7ccc(Cl)cc7)c6s5)cc34)CC2)C1` [Compound 7, (S)-2-(tert-butoxy)-2-(7-(4-chlorophenyl)-5-methyl-2-(1-methyl-3-(1-(1-propionylazetidin-3-yl)piperidin-4-yl)-1H-indazol-5-yl)benzo[d]thiazol-6-yl)acetic Acid], the EC50 was found to be 114 nM in the test on HIV-IIIb IN T174I BT, 138 nM with HIV-IIIb IN T174I DE and 14 nM in the test with HIV-IIIb (wildtype) (setting [1]).

With `Cc1cc2nc(-c3ccc4c(c3)c(C3CCN(C5CN(C(C)C(F)(F)F)C5)CC3)nn4C)sc2c(-c2ccc(Cl)cc2)c1[C@H](OC(C)(C)C)C(=O)O` (stereo partly drawn) [Compound 8, (2S)-2-(tert-butoxy)-2-(7-(4-chlorophenyl)-5-methyl-2-(1-methyl-3-(1-(1-(1,1,1-trifluoropropan-2-yl)azetidin-3-yl)piperidin-4-yl)-1H-indazol-5-yl)benzo[d]thiazol-6-yl)acetic Acid], the figures for the EC50 in the test with HIV-IIIb IN T174I BT, in the test with HIV-IIIb IN T174I DE and in the test on HIV-IIIb (wildtype) (setting [1]) were 1090 nM, 1330 nM and 13 nM, respectively.

With `CC(=O)N1CC[C@H](N2CCC(c3nn(C)c4ccc(-c5nc6cc(C)c([C@H](OC(C)(C)C)C(=O)O)c(-c7ccc(Cl)cc7)c6s5)cc34)CC2)C1` [Compound 11, (S)-2-(2-(3-(1-((S)-1-acetylpyrrolidin-3-yl)piperidin-4-yl)-1-methyl-1H-indazol-5-yl)-7-(4-chlorophenyl)-5-methylbenzo[d]thiazol-6-yl)-2-(tert-butoxy)acetic Acid], the concentration for a half-maximal effect (EC50) worked out at 85 nM in the test on HIV-IIIb IN T174I BT, 166 nM in the test with HIV-IIIb IN T174I DE and 8 nM with HIV-IIIb (wildtype) (setting [1]).

On to `CC(=O)N1CC[C@@H](N2CCC(c3nn(C)c4ccc(-c5nc6cc(C)c([C@H](OC(C)(C)C)C(=O)O)c(-c7ccc(Cl)cc7)c6s5)cc34)CC2)C1` [Compound 12, (S)-2-(2-(3-(1-((R)-1-acetylpyrrolidin-3-yl)piperidin-4-yl)-1-methyl-1H-indazol-5-yl)-7-(4-chlorophenyl)-5-methylbenzo[d]thiazol-6-yl)-2-(tert-butoxy)acetic Acid], for which the concentration for a half-maximal effect (EC50) in the test with HIV-IIIb IN T174I BT amounted to 81 nM; in the test on HIV-IIIb IN T174I DE, 138 nM; in the test with HIV-IIIb (wildtype) (setting [1]), 10 nM.

`Cc1cc2nc(-c3ccc4c(c3)c(N3C5CCC3CN(C3COC3)C5)nn4C)sc2c(-c2ccc(Cl)cc2)c1[C@H](OC(C)(C)C)C(=O)O` [Compound 13, (2S)-2-(tert-butoxy)-2-(7-(4-chlorophenyl)-5-methyl-2-(1-methyl-3-(3-(oxetan-3-yl)-3,8-diazabicyclo[3.2.1]octan-8-yl)-1H-indazol-5-yl)benzo[d]thiazol-6-yl)acetic Acid]: the 50% effective concentration (EC50) is 1230 nM in the test with HIV-IIIb IN T174I BT, 3130 nM in the test on HIV-IIIb IN T174I DE and 10 nM in the test on HIV-IIIb (wildtype) (setting [2]).

Take `COC(=O)N1CC(N2CCC(c3nn(C(F)F)c4ccc(-c5nc6cc(C)c([C@H](OC(C)(C)C)C(=O)O)c(-c7ccc(Cl)cc7)c6s5)nc34)CC2)C1` [Compound 14, (S)-2-(tert-butoxy)-2-(7-(4-chlorophenyl)-2-(1-(difluoromethyl)-3-(1-(1-(methoxycarbonyl)azetidin-3-yl)piperidin-4-yl)-1H-pyrazolo[4,3-b]pyridin-5-yl)-5-methylbenzo[d]thiazol-6-yl)acetic Acid]: the EC50 was found to be 109 nM in the test on HIV-IIIb IN T174I BT, 304 nM in the test with HIV-IIIb IN T174I DE and 5 nM in the test on HIV-IIIb (wildtype) (setting [1]).

Take `Cc1cc2nc(-c3cnc4c(n3)c(C3CCN(C5COC5)CC3)cn4C)sc2c(-c2ccc(Cl)cc2)c1[C@H](OC(C)(C)C)C(=O)O` [Compound 16, (S)-2-(tert-butoxy)-2-(7-(4-chlorophenyl)-5-methyl-2-(5-methyl-7-(1-(oxetan-3-yl)piperidin-4-yl)-5H-pyrrolo[2,3-b]pyrazin-2-yl)benzo[d]thiazol-6-yl)acetic Acid]: the EC50 with HIV-IIIb IN T174I BT is 104 nM; in the test with HIV-IIIb IN T174I DE it was 603 nM; in the test with HIV-IIIb (wildtype) (setting [1]), 2 nM.

In the case of `Cc1cc2nc(-c3ccc4c(c3)c(C3=CCOCC3)nn4C)sc2c(-c2ccc(Cl)cc2)c1[C@H](OC(C)(C)C)C(=O)O` [Compound 18, (S)-2-(tert-butoxy)-2-(7-(4-chlorophenyl)-2-(3-(3,6-dihydro-2H-pyran-4-yl)-1-methyl-1H-indazol-5-yl)-5-methylbenzo[d]thiazol-6-yl)acetic Acid], the concentration giving a half-maximal response (EC50) in the test with HIV-IIIb IN T174I BT stood at 2150 nM; in the test with HIV-IIIb IN T174I DE, 4500 nM; in the test with HIV-IIIb (wildtype) (setting [1]), 14 nM.

As to `Cc1cc2nc(-c3ccc4c(c3)c(C3CCN(C5(C)COC5)CC3)nn4C)sc2c(-c2ccc(Cl)cc2)c1[C@H](OC(C)(C)C)C(=O)O` [Compound 20, (S)-2-(tert-butoxy)-2-(7-(4-chlorophenyl)-5-methyl-2-(1-methyl-3-(1-(3-methyloxetan-3-yl)piperidin-4-yl)-1H-indazol-5-yl)benzo[d]thiazol-6-yl)acetic Acid], the EC50 with HIV-IIIb IN T174I BT worked out at 287 nM; in the test on HIV-IIIb IN T174I DE it was 542 nM; in the test with HIV-IIIb (wildtype) (setting [1]), 7 nM.

For the molecule `Cc1cc2nc(-c3ccc4c(c3)c(C3CCN(C5COC5)CC3)nn4C)sc2c(-c2ccc(Cl)cc2)c1[C@H](OC1CC1)C(=O)O` [Compound 22, (S)-2-(7-(4-chlorophenyl)-5-methyl-2-(1-methyl-3-(1-(oxetan-3-yl)piperidin-4-yl)-1H-indazol-5-yl)benzo[d]thiazol-6-yl)-2-cyclopropoxyacetic Acid], the EC50 in the test on HIV-IIIb IN T174I BT was 48 nM; with HIV-IIIb IN T174I DE, 108 nM; with HIV-IIIb (wildtype) (setting [2]), 23 nM.

Regarding `Cc1cc2nc(-c3ccc4c(c3)c(N3CCN(C)CC3=O)nn4C)sc2c(-c2ccc(Cl)cc2)c1[C@H](OC(C)(C)C)C(=O)O` [Compound 87, (S)-2-(tert-butoxy)-2-(7-(4-chlorophenyl)-5-methyl-2-(1-methyl-3-(4-methyl-2-oxopiperazin-1-yl)-1H-indazol-5-yl)benzo[d]thiazol-6-yl)acetic acid], the EC50 in the test on HIV-IIIb (wildtype) (setting [1]) was found to be 13 nM.

On to `Cc1cc2nc(-c3ccc4c(n3)c(N3CCN(C)CC3)nn4C)sc2c(-c2ccc(Cl)cc2)c1[C@H](OC(C)(C)C)C(=O)O` [Compound 196, (S)-2-(tert-butoxy)-2-(7-(4-chloro-phenyl)-5-methyl-2-(1-methyl-3-(4-methylpiperazin-1-yl)-1H-pyrazolo [4,3-b]pyridin-5-yl)benzo[d]thiazol-6-yl)acetic acid], for which the concentration giving a half-maximal response (EC50) in the test with HIV-IIIb (wildtype) (setting [1]) was determined as 4 nM.
